From publication PMC4822888, “Subtype-Selective Small Molecule Inhibitors Reveal a Fundamental Role for Nav1.7 in Nociceptor Electrogenesis, Axonal Conduction and Presynaptic Release” (PLoS ONE, 2016)
Like-named read-outs stand apart in the source and are kept apart here.

Experiments:
[1] = system: substantia gelatinosa (SG) neurons of the superficial dorsal horn
[2] = system: small diameter mouse DRG neurons; format: cell-based
[3] = system: synaptosomes prepared from L4/L5 spinal cord sections; design: species or system mouse
Protocol: A lumbosacral laminectomy was performed and a segment of lumbar spinal cord was removed into a petri dish containing ice-cold pre-oxygenated aCSF. The dura mater, ventral and dorsal roots and the pia-arachnoid membrane were removed. A small segment of the spinal cord containing only the lumbar region (L4–L5) was dissected free, weighed and placed into ice-cold homogenization buffer composition (mM) 0.32 M sucrose, 10 mM HEPES (pH 7.4, bubbled with 100% O2). Spinal cord tissue was homogenized in buffer using 20 strokes of a glass/glass hand homogenizer. The crude homogenate was diluted with 3 mL of ice-cold homogenization buffer and centrifuged at 1000 x g for 5 mins at 4°C. Synaptosomes were isolated from the supernatant by an additional centrifugation at 20,000 x g for 2 mins at 4°C. The synaptosomal pellet was resuspended in 3 mL of Krebs buffer with composition (in mM): NaCl 118, KCl 2.4, CaCl2 2.4, MgSO4 1.2, KH2PO4 1.2, NaHCO3 25, glucose 10, pH 7.4 (bubbled with 95% O2 and 5% CO2). Protein quantification was performed on the synaptosomal solution using the Bradford colorimetric protein assay and bovine serum albumin standards. Samples were diluted to obtain a final concentration of 0.1 mg mL^-1 for CGRP evaluation and 100 μL samples of the synaptosomal solution was pipetted into eppendorfs. Synaptosomes were incubated at 37°C for 10 mins in the presence of test compounds or DMSO (1 μl total volume). Synaptosomes were stimulated using Veratridine 10 μM in the presence of Thiorphan (10 μM) and incubated for a further 10 mins at 37°C. Samples were then filtered using […] filters and 100 μl of the filtrate was transferred to CGRP ELISA plate (Bertin Pharma) and assayed according to the manufactures instructions.

[4] = target: mouse Nav1.7 (Mus musculus, UniProt Q62205); format: cell-based
Chain of mouse Nav1.7 (Q62205 whole entry): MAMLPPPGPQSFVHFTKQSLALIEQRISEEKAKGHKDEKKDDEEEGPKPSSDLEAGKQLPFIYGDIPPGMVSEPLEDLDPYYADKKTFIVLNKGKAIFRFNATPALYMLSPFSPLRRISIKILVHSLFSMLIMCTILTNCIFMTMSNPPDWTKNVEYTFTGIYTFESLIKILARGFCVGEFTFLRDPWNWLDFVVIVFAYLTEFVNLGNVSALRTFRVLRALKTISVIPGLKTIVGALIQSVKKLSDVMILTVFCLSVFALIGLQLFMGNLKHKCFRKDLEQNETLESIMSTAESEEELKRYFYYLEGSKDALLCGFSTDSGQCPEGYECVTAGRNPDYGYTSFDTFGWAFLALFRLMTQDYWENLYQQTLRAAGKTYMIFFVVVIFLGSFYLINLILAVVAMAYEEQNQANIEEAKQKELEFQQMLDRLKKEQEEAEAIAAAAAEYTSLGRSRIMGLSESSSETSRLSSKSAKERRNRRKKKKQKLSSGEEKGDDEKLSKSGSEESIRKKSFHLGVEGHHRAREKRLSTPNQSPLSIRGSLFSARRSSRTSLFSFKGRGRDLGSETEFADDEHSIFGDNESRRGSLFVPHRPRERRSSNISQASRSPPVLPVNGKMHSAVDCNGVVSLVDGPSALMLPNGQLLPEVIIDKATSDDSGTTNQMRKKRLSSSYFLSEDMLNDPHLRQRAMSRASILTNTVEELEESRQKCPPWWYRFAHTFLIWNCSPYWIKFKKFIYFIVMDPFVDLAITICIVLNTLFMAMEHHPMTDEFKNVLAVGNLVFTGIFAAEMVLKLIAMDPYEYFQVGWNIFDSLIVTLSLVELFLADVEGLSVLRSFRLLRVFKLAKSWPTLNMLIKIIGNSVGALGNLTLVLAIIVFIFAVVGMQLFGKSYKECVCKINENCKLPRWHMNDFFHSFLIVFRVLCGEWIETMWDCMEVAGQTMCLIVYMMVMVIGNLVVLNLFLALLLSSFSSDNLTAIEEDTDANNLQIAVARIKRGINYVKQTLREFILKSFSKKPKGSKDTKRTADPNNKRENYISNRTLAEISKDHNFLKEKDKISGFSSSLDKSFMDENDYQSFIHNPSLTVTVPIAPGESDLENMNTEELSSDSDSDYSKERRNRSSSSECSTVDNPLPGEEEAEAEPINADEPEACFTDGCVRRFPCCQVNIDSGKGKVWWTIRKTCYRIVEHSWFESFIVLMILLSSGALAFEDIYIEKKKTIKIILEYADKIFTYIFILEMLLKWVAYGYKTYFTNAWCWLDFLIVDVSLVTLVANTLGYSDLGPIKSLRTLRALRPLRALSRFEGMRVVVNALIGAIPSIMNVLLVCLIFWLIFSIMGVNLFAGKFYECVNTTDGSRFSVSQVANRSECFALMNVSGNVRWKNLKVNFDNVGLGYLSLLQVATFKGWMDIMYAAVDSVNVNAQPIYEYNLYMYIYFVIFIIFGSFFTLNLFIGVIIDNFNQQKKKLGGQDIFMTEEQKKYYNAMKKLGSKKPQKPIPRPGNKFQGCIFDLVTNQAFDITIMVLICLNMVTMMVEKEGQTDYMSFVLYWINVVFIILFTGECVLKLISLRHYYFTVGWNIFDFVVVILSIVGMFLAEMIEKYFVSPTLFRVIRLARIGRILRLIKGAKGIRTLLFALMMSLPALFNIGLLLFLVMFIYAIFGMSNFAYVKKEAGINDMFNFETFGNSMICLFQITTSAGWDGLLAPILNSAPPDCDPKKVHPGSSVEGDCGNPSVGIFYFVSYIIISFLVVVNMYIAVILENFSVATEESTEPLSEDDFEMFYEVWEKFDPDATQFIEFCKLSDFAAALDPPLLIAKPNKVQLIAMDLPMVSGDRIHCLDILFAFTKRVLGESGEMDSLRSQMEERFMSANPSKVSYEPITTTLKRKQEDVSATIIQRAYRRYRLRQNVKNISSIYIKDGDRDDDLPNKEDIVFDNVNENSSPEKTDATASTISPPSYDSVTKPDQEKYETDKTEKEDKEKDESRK

[5] = target: mouse Nav1.1 (Mus musculus, UniProt A2APX8); format: cell-based; details: recombinant mouse Nav1.1
[6] = system: small diameter mouse DRG neurons; assay: Current clamp of action potentials in small diameter mDRG neurons; format: cell-based
Protocol: Dorsal root ganglia (DRG) were isolated and dissociated according to a previously published method. Briefly, DRGs were obtained from all spinal locations and dissociated neurons plated on glass coverslips pre-coated with poly-D-lysine/laminin (BD Biosciences) and left to adhere for 1.5–2 hrs before flooding. Growth media consisted of Lebovitz L-15 Glutamax (Life Technologies) supplemented with 10% FCS, 24 mM NaHCO3 and 38 mM glucose.
Electrophysiological recordings were obtained from stably transfected HEK 293 cells, acutely dissociated mouse DRG neurons, cultured human DRG neurons or mouse superficial dorsal horn neurons using either an Axopatch 200B or […] amplifier (Molecular Devices), or EPC-10 USB amplifier (HEKA). Small diameter mouse DRG neurons were identified as those with a whole cell capacitance between 10–25 pF [17]. For human DRG neurons, patch clamp recordings were obtained from small-to-medium diameter neurons (<60 μm), the majority of which have previously been classified as nociceptors.
ECS contained (in mM) 135 NaCl, 4.7 KCl, 1 CaCl2, 1 MgCl2, 10 HEPES and 10 glucose (300–310 mOsm, pH 7.4 with NaOH). ICS contained (in mM) 140 KCl, 0.5 EGTA, 5 HEPES, and 3 Mg-ATP, (pH 7.3 with KOH, 300–305 mOsm). Single action potentials were evoked from Vm -70 mV by a 20 ms suprathreshold current step (0.1 Hz).

[7] = system: mDRG neurons; assay: Action potential voltage clamp in mDRG neurons; format: cell-based, mouse; details: 30 nM, p < 0.05
Protocol: Recordings were performed as described in Blair & Bean (2002). Briefly, the internal solution contained (in mM): 140 K-Mes, 13.5 NaCl, 1.6 MgCl2, 0.09 EGTA, 9 HEPES, 0.9 glucose, 14 Tris-creatine PO4, 4 Mg-ATP, and 0.3 Tris-GTP (285–300 mOsm, pH 7.2 with KOH). The ECS was identical to that used for current clamp recordings (see above). Action potentials were recorded in current clamp mode following a 20 ms current injection from a Vm of -70 mV. The same cell was then examined under voltage-clamp (-70 mV) whereby the recorded action potential was used as the voltage command. Series resistance was compensated for by up to 80%.

[8] = system: substantia gelatinosa (SG) neurons; assay: Current clamp action potentials in SG neurons of mouse spinal cord slices; format: cell-based; details: 30 nM
[9] = system: WT mice; assay: Capsaicin flare response in WT mice; format: in vivo, mouse; details: 55 mins, vehicle 4930 ± 751
[10] = system: substantia gelatinosa (SG) neurons of the superficial dorsal horn; assay: cells; details: Mus musculus, Neuron

With `NS(=O)(=O)c1cccc2c1c([N+](=O)[O-])cc1nc(O)c(O)nc12` [NBQX] the “Effect on Aδ and C fiber EPSCs” value ([1]; 5 μM, data not shown) was “completely abolished”.

For `NC1=N[C@H](O)[C@H]2[C@H]3O[C@]4(O)O[C@@H]([C@@H](O)[C@@]2(N1)[C@@H]4O)[C@]3(O)CO` [TTX, tetrodotoxin], the “Effect on current remaining after A-803467” value [2] was “abolished” and the “Effect on Aδ and C fiber EPSCs” value [1] was “completely abolished”.

For `COc1cc(NC(=O)c2ccc(-c3ccc(Cl)cc3)o2)cc(OC)c1` [A-803467], the “Block of total Na+ current” value ([2]; 1 μM, small diameter mDRG neurons) was 34.1 ± 3.0%.

With `Cc1cccc(C)c1OCC(C)N` (centres unmarked) [mexiletine, reference compound] the “Veratridine evoked CGRP release” value [3] was “significantly reduced”.

For `Nc1n[nH]cc1-c1cc(C(F)(F)F)ccc1Oc1cc(F)c(S(=O)(=O)Nc2cscn2)cc1Cl` [PF-05198007, 4-(2-(3-amino-1H-pyrazol-4-yl)-4-(trifluoromethyl)phenoxy)-5-chloro-2-fluoro-N-(thiazol-4-yl)benzenesulfonamide], the Slope [4] was 1.1, the Slope [5] was 0.7 and the “Block of total TTX-S current” value ([2]; 30 nM, in presence of A-803467) was 83.0 ± 2.7%. The “Neurons with action potential failure (complete block)” value ([6]; 30 nM, cells blocked/cells tested) was 6/13, the Spike amplitude ([6]; control 43.0 ± 3.3 mV) was 37.7 ± 3.9 mV and the Upstroke slope ([6]; control 137 ± 19 mV/ms) was 86 ± 11 mV/ms. For the same compound, the Action potential threshold ([6]; control -27.8 ± 2.0 mV) was -22.8 ± 1.6 mV, the Action potential rheobase ([6]; in presence of compound, control 173 ± 37 pA) was 239 ± 47 pA and the “Action potential rheobase after washout” value ([6]; wash, control 173 ± 37 pA) was 176 ± 35 pA. For the same compound, the “Latency of inward current” value [7] was “increased latency”, the “Peak amplitude of inward current” value [7] was “decrease in the peak amplitude” and the “Effect on action potentials evoked by injection of depolarizing current” value [8] was “no effects”. The “Neurons with dorsal root evoked action potentials abolished” value [8] was 8 out of 9, the “Veratridine evoked CGRP release” value ([3]; 30 nM, p < 0.05) was “significantly reduced” and the “Veratridine evoked CGRP release” value ([3]; 100 nM, p < 0.05) was “significantly reduced”. The “Capsaicin flare response, AUC” value ([9]; 1 mg/kg oral) was 1967 ± 472, the “Capsaicin flare response, AUC” value ([9]; 10 mg/kg oral) was 2265 ± 382 and the “Latency of the C-fiber mediated EPSC” value ([1]; 30 nM applied to the dorsal root only, p < 0.05) was “delay in the latency”. The inhibition at 0.03 µM ([10]; read-out: Inhibition of Aδ-fiber evoked EPSC amplitude) was 46.9 ± 5.4%, the inhibition at 0.03 µM ([10]; read-out: Inhibition of C-fiber evoked EPSC amplitude) was 53.7 ± 10.1% and the inhibition at 0.03 µM ([10]; read-out: Inhibition of C-fiber evoked EPSCs) was 87 ± 9%.
